# Source: EP0340198B1, “Immunoassay for the detection of alpha-haloacetamides” (priority 1988, dated 1989)
# What was measured:
# alachlor antibodies = experiment: inhibition ELISA for alachlor (cross-reactivity studies); assay type: binding, rabbit; settings: for reaction (cross-reactivity) with the antibodies, in words: relative to alachlor; for ELISA % Absorbance MEAN (n = 20): antisera from bleed seven
# Method: Immunoassays. A known "checkerboard assay" was initially conducted with each serum sample after the first boost to detect the production of antibodies against alachlor. […] The next 7 rows received the subsequent dilutions of the screening antigen. The plate was covered with Parafilm and stored overnight at 4°C. The next morning, the unbound screening antigen was removed from the wells by washing three times with phosphate buffered saline solution (0.01 M phosphate buffer of pH 7.4, 0.15 M NaCl; PBS). The remaining active sites in the wells were blocked with PBS-8% non-fat dry milk solution, (NFDM, 0.3 mL) for 1 hr at 22°C. Serum, which had been stored at -20°C, was freshly thawed and serially diluted (one to two) from 1,000 to 64,000-fold using PBS-T (PBS containing 0.02% Tween 20). Starting with the most concentrated solution, 0.1 mL of the serum solution was pipetted into all 8 wells of column 1; the remaining columns received the subsequent dilutions of the serum solution. The plate was covered and incubated at 22°C for 1.5 hrs. Following triplicate washes of the wells with PBS-T, each of the wells received 0.1 mL of goat anti-rabbit gamma-globulin conjugated to horseradish peroxidase (GAR-HRP) freshly thawed and diluted 4,000 fold with PBS-1% NFDM. After a final wash cycle (4 times) with PBS-T, freshly prepared O-phenylene diamine (PDA) substrate solution (0.2 mL, 0.04 mg/mL PDA and 0.01% H₂O₂ in 0.05 M citric acid and 0.15 M sodium dibasic phosphate, pH 5.0) was dispensed into each of the wells and incubated in the dark at 22°C for 30-60 min. Sulfuric acid (4 N, 50 µL) was added to each of the wells to stop the reaction, and the final absorbances of the wells (490 nm) were recorded.
# The inhibition ELISA required one additional step in the assay procedure described above. Equal volumes of the diluted serum and aqueous alachlor standard or unknown sample were mixed and preincubated at 22°C for 1 hr. This mixture (0.1 mL/well) was then analyzed in 6 replicate wells on the plate. The presence of free alachlor inhibited the binding of the antibody to the alachlor-BSA conjugate, resulting in an inhibition of the development of absorbance at 490 nm. The amount of free alachlor was indirectly proportional to the intensity of color developed. Levels of alachlor in unknown water samples were calculated based on the alachlor standards on the same plate. Alachlor standards (0, 0.2, 0.5, 1.0, 3.0, 5.0, and 8.0 ppb in deionized water) were stored at -20°C in 1-mL portions, and were freshly thawed for each assay.
# Data Calculations. The lay-out of a typical 96-well microtiter plate is 8 rows of 12 columns in an inhibition ELISA assay for alachlor. The first 6 wells in the first column of wells were not coated with the screening antigen and served as the background wells. The first 6 wells in the remaining 7 columns of wells were reserved for the seven alachlor standards (0 to 8 ppb) listed above. The remaining wells in all 8 rows were used for the samples. The uncorrected absorbances of the wells determined by the Bio-tek reader were used in the following calculations. The median was calculated for the 6 replicate background wells and was then subtracted from the medians of the standards and samples. All the median values were divided by the median of the standard without alachlor (0 ppb) to generate percentages of absorbances. The percent absorbance of the alachlor standards was then plotted on the Y axis against the logarithm (base 10) of the actual concentrations of alachlor on the X axis. A hyperbolic curve was drawn through the standards, and the resulting standard curve was used to calculate the concentrations of alachlor in the unknown samples.
# The calculations described above were usually carried out using a computer program.
# [1] = test system: affinity column prepared from the serum of the first bleed of the rabbit immunized with the alachlor-IgG conjugate; experiment: affinity column extraction of alachlor and analogs from human urine; assay type: binding
# Method: Affinity Chromatography. The preparation of affinity columns using rabbit antisera was as follows: The rabbit IgG's were purified by passing 5 mL of the antiserum through a column containing 5 mL of the swelled protein A-agarose gel. By monitoring the absorbance at 280 nm in the column effluent, the non-bound proteins were removed by washing with PBS, and the IgG's were then eluted with acetic acid at pH 2.3 (0.58% acetic acid and 0.15 M NaCl). […] The reusable protein A-agarose column was stored in PBS containing 0.02% sodium azide at 4°C.
# The protein A-purified IgG was immobilized onto Affigel-10 affinity support. Affigel-10 (5 mL) was washed 3 times with isopropyl alcohol and 3 times with cold distilled water in a Buchner funnel. The gel was then added to a solution of IgG (3 mL in 0.1 M HEPES buffer, pH 7.5) at 4°C. Following 4 hrs of stirring, the gel was precipitated by gentle centrifugation and washed with HEPES buffer (3 x 3 mL). The remaining active sites on the gel were blocked by resuspending the gel in water (2 mL) and adding ethanolamine HCl (0.5 mL, 1M), and stirring the mixture at 22°C for 1 hr. […] After binding the alachlor, the column was washed with water (2 mL/min) to remove unbound material and alachlor was eluted with 75% aqueous methanol.
# [2] = test system: antibodies toward butachlor; experiment: inhibition ELISA for butachlor; assay type: binding, rabbits; settings: standard solutions at 10 and 50 ppb in DI water
# Excerpt: (§1) The generation of antibodies toward butachlor (2-chloro-2′,6′-diethyl-N-(butoxymethyl)acetanilide), amidochlor (2-chloro-2′,6′-diethyl-N-acetamidomethyl acetanilide), and metolachlor (2-chloro-2′-ethyl-6′-methyl-N-(2-methoxy-1-methylethyl)acetanilide) were accomplished following identical procedures as those described for alachlor. The individual 14C-labeled chloroacetanilide was covalently bound to HSA (human serum albumin) with AHT, and to sheep IgG with AMSA.
# (§2) The hapten-IgG conjugates were used to immunize rabbits. The corresponding hapten-BSA conjugates were then utilized in checkerboard assays to determine the presence of desired antibodies in the antisera. An inhibition ELISA for butachlor was set up with antiserum, butachlor-HSA screening antigen, and butachlor. Similar assays were also set up for amidochlor and metolachlor.
# (§3) The sensitivity of the inhibition ELISA for butachlor, amidochlor, and metolachlor was tested with respective standards prepared in DI water. Using the best antiserum, the butachlor ELISA produced an IC50 of 8 ppb.
# (§4) The specificity of the ELISA for butachlor, amidochlor, and metolachlor were tested using standard solutions of alachlor, acetochlor, butachlor, amidochlor, metolachlor, and propachlor at concentrations of 10 and 50 ppb in DI water. At these concentrations, the ELISA assay for butachlor, amidochlor, and metolachlor was each inhibited only by the respective free hapten, and not by any of the other chloroacetanilides.
# [3] = test system: antibodies toward metolachlor; experiment: inhibition ELISA for metolachlor; assay type: binding, rabbits; settings: standard solutions at 10 and 50 ppb in DI water
# Excerpt: as §1, §2, §3, §4
# [4] = test system: antibodies toward amidochlor; experiment: inhibition ELISA for amidochlor; assay type: binding, rabbits; settings: standard solutions at 10 and 50 ppb in DI water
# Excerpt: as §1, §2, §3, §4
structure (smiles),measurement,setting,value
"CCOCN(C(=O)CCl)c1c(C)cccc1CC [Acetochlor, acetochlor]",percent cross-reactivity,alachlor antibodies; bleed four,10%
same,cross-reactivity in the subsequent bleeds,alachlor antibodies; bleeds after bleed four,decreased slightly
same,"reaction (cross-reactivity) with the antibodies, in words",alachlor antibodies,little to no interaction
same,% 14C Eluent (75% CH3OH),[1]; 1.0 µg/2 mL human urine,38.0%
same,% 14C Wash (H2O),[1]; 1.0 µg/2 mL human urine,61.0%
same,inhibition of the ELISA assay for butachlor,[2],not
same,inhibition of the ELISA assay for metolachlor,[3],not
same,inhibition of the ELISA assay for amidochlor,[4],not
"CCc1cccc(CC)c1N(COC)C(=O)CCl [Alachlor, α-chloro-2′,6′-diethyl-N-methoxymethyl acetanilide]",ELISA % Absorbance MEAN (n = 20),alachlor antibodies; Alachlor Conc. 0.2 ppb,78.1%
same,ELISA % Absorbance MEAN (n = 20),alachlor antibodies; Alachlor Conc. 0.5 ppb,55.3%
same,ELISA % Absorbance MEAN (n = 20),alachlor antibodies; Alachlor Conc. 1.0 ppb,37.4%
same,ELISA % Absorbance MEAN (n = 20),alachlor antibodies; Alachlor Conc. 3.0 ppb,22.9%
same,ELISA % Absorbance MEAN (n = 20),alachlor antibodies; Alachlor Conc. 5.0 ppb,17.7%
same,ELISA % Absorbance MEAN (n = 20),alachlor antibodies; Alachlor Conc. 8.0 ppb,11.3%
same,percent cross-reactivity,"alachlor antibodies; IC50 of alachlor divided by IC50 of analog x 100, bleed not stated",100%
same,% 14C Eluent (75% CH3OH),[1]; 0.1 µg/2 mL human urine,123.0%
same,% 14C Wash (H2O),[1]; 0.1 µg/2 mL human urine,20.0%
same,% 14C Eluent (75% CH3OH),[1]; 0.6 µg/2 mL human urine,69.0%
same,% 14C Wash (H2O),[1]; 0.6 µg/2 mL human urine,11.0%
same,% 14C Eluent (75% CH3OH),[1]; 1.4 µg/2 mL human urine,48.0%
same,% 14C Wash (H2O),[1]; 1.4 µg/2 mL human urine,37.0%
same,inhibition of the ELISA assay for butachlor,[2],not
same,inhibition of the ELISA assay for metolachlor,[3],not
same,inhibition of the ELISA assay for amidochlor,[4],not
"CC(C)N(C(=O)CCl)c1ccccc1 [Propachlor, propachlor]","reaction (cross-reactivity) with the antibodies, in words",alachlor antibodies,little to no interaction
same,% 14C Eluent (75% CH3OH),[1]; 1.2 µg/2 mL human urine,11.0%
same,% 14C Wash (H2O),[1]; 1.2 µg/2 mL human urine,88.0%
same,inhibition of the ELISA assay for butachlor,[2],not
same,inhibition of the ELISA assay for metolachlor,[3],not
same,inhibition of the ELISA assay for amidochlor,[4],not
